Measurements from patent US20080145313A1, “Compositions and Methods for the Treatment and Prevention of Neoplastic Disorders” (Genesis Research & Development Corporation Limited, priority 2006, published 2008).

Experiments:
[1] = system: target transcript mRNA in A549 cells; assay: Level of mRNA of target transcript in A549 cells by quantitative RT-PCR (Tables 12 and 13); assay type: cell-based, human; conditions: 24 h post-transfection; for mRNA knockdown of transporter gene target transcript, 0.1 nM: 0.1 nM siRNA; for mRNA knockdown of transporter gene target transcript, 1 nM: 1 nM siRNA
Outline: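 Target mRNA was measured by SYBR Green quantitative RT-PCR using random-primed cDNA, normalised to HPRT and Lamin. Samples came from A549 cells 24 h post-transfection with 0.1, 1.0 or 10 nM siRNA.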

[2] = system: A549 cells; assay: Growth inhibition of siRNA-transfected A549 cells, SYBR Green I DNA content; assay type: cell-based, human; conditions: A549 cells, 10 nM siRNA, DNA content 96 hours after transfection, transporter gene targets
Outline: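 Growth read-out: cellular DNA quantified with SYBR Green I (485/535 nm) 96 h after transfection, cells frozen, thawed and lysed in PBS/1% Triton X-100, pH 7. Cells (A549, 5×10^3 cells/cm^2) received 10 nM siRNA by RNAiMAX; non-specific siRNA served as control; triplicate wells averaged.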

Row | Substance | mRNA knockdown of transporter gene target transcript, 0.1 nM [1] | mRNA knockdown of transporter gene target transcript, 1 nM [1] | Growth Inhibition in A549 cells by 10 nM siRNA [2]
1 | SEQ ID NO: 4889: siRNA targeting SLC1A5 (ASCT2) (chain 1 TTGAAGAAGCGGATAAGCAGCTCCC; chain 2 UUGAAGAAGCGGAUAAGCAGCUCCC; Antisense strand given in DNA and RNA notation, chemistry not given here; one strand in two spellings) | ++ (70-90% mRNA knockdown) | ++ (70-90% mRNA knockdown) | − (no growth inhibition)
2 | SEQ ID NO: 4890: siRNA targeting SLC1A5 (ASCT2) (chain 1 TTTACGAAGTCCAAGGACTGCTGGC; chain 2 UUUACGAAGUCCAAGGACUGCUGGC; Antisense strand given in DNA and RNA notation, chemistry not given here; one strand in two spellings) | ++ (70-90% mRNA knockdown) | ++ (70-90% mRNA knockdown) | − (no growth inhibition)
3 | SEQ ID NO: 4891: siRNA targeting SLC1A5 (ASCT2) (chain 1 TCTACATTGAGGACGGTACAGGACC; chain 2 UCUACAUUGAGGACGGUACAGGACC; Antisense strand given in DNA and RNA notation, chemistry not given here; one strand in two spellings) | ++ (70-90% mRNA knockdown) | ++ (70-90% mRNA knockdown) | − (no growth inhibition)
4 | SEQ ID NO: 4892: siRNA targeting SLC2A1 (GLUT1) (chain 1 TGTCTTATCACTTTGGCTGGCTCCC; chain 2 UGUCUUAUCACUUUGGCUGGCUCCC; Antisense strand given in DNA and RNA notation, chemistry not given here; one strand in two spellings) | − (<50% mRNA knockdown) | − (<50% mRNA knockdown) | + (inhibits by at least 50%)
5 | SEQ ID NO: 4893: siRNA targeting SLC2A1 (GLUT1) (chain 1 TTCATCATCAGCATTGAATTCCGCC; chain 2 UUCAUCAUCAGCAUUGAAUUCCGCC; Antisense strand given in DNA and RNA notation, chemistry not given here; one strand in two spellings) | − (<50% mRNA knockdown) | − (<50% mRNA knockdown) | ++ (inhibits by at least 75%)
6 | SEQ ID NO: 4894: siRNA targeting SLC2A1 (GLUT1) (chain 1 TGACACTTCACCCACATACATGGGC; chain 2 UGACACUUCACCCACAUACAUGGGC; Antisense strand given in DNA and RNA notation, chemistry not given here; one strand in two spellings) | − (<50% mRNA knockdown) | ++ (70-90% mRNA knockdown) | − (no growth inhibition)
7 | SEQ ID NO: 4895: siRNA targeting SLC2A5 (GLUT5) (chain 1 ATGTATGGCATCCAGGACACTGTGT; chain 2 AUGUAUGGCAUCCAGGACACUGUGU; Antisense strand given in DNA and RNA notation, chemistry not given here; one strand in two spellings) | ++ (70-90% mRNA knockdown) | ++ (70-90% mRNA knockdown) | − (no growth inhibition)
8 | SEQ ID NO: 4896: siRNA targeting SLC2A5 (GLUT5) (chain 1 AAGTCTTCCATGAATTCACCGGTCC; chain 2 AAGUCUUCCAUGAAUUCACCGGUCC; Antisense strand given in DNA and RNA notation, chemistry not given here; one strand in two spellings) | − (<50% mRNA knockdown) | − (<50% mRNA knockdown) | − (no growth inhibition)
9 | SEQ ID NO: 4897: siRNA targeting SLC2A5 (GLUT5) (chain 1 TTACAGACCACAGCAACGTCAAGGG; chain 2 UUACAGACCACAGCAACGUCAAGGG; Antisense strand given in DNA and RNA notation, chemistry not given here; one strand in two spellings) | +++ (>90% mRNA knockdown) | +++ (>90% mRNA knockdown) | ++ (inhibits by at least 75%)
10 | SEQ ID NO: 4898: siRNA targeting SLC2A12 (GLUT12) (chain 1 TATTGTTGTTGGTTGACAGGTTTCC; chain 2 UAUUGUUGUUGGUUGACAGGUUUCC; Antisense strand given in DNA and RNA notation, chemistry not given here; one strand in two spellings) | +++ (>90% mRNA knockdown) | +++ (>90% mRNA knockdown) | − (no growth inhibition)
11 | SEQ ID NO: 4899: siRNA targeting SLC2A12 (GLUT12) (chain 1 TTAGCAAGGATGCTGAGGTCGTCTC; chain 2 UUAGCAAGGAUGCUGAGGUCGUCUC; Antisense strand given in DNA and RNA notation, chemistry not given here; one strand in two spellings) | ++ (70-90% mRNA knockdown) | ++ (70-90% mRNA knockdown) | − (no growth inhibition)
12 | SEQ ID NO: 4900: siRNA targeting SLC2A12 (GLUT12) (chain 1 TTGAAATATAGGCAGAAAGAATGCC; chain 2 UUGAAAUAUAGGCAGAAAGAAUGCC; Antisense strand given in DNA and RNA notation, chemistry not given here; one strand in two spellings) | ++ (70-90% mRNA knockdown) | ++ (70-90% mRNA knockdown) | − (no growth inhibition)
13 | SEQ ID NO: 4901: siRNA targeting SLC7A5 (LAT1) (chain 1 AGCGTCATCACACACGTGAACACGA; chain 2 AGCGUCAUCACACACGUGAACACGA; Antisense strand given in DNA and RNA notation, chemistry not given here; one strand in two spellings) | ++ (70-90% mRNA knockdown) | ++ (70-90% mRNA knockdown) | − (no growth inhibition)
14 | SEQ ID NO: 4902: siRNA targeting SLC7A5 (LAT1) (chain 1 AAAGAGGCCGCTGTATAATGCCAGC; chain 2 AAAGAGGCCGCUGUAUAAUGCCAGC; Antisense strand given in DNA and RNA notation, chemistry not given here; one strand in two spellings) | ++ (70-90% mRNA knockdown) | ++ (70-90% mRNA knockdown) | + (inhibits by at least 50%)
15 | SEQ ID NO: 4903: siRNA targeting SLC7A5 (LAT1) (chain 1 ACGAAATTCAAGTAATTCCATCCTC; chain 2 ACGAAAUUCAAGUAAUUCCAUCCUC; Antisense strand given in DNA and RNA notation, chemistry not given here; one strand in two spellings) | ++ (70-90% mRNA knockdown) | +++ (>90% mRNA knockdown) | − (no growth inhibition)
16 | SEQ ID NO: 4904: siRNA targeting SLC7A11 (xCT) (chain 1 AGATAAATCAGCCCAGCAACTGCCA; chain 2 AGAUAAAUCAGCCCAGCAACUGCCA; Antisense strand given in DNA and RNA notation, chemistry not given here; one strand in two spellings) | + (50-70% mRNA knockdown) | ++ (70-90% mRNA knockdown) | − (no growth inhibition)
